Data reported in PubChem BioAssay (NCI).
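Tested at 5 concentrations; 48 h exposure; 96-well plates; endpoints linearly interpolated, else capped at highest concentration. Here, GI50 denotes the concentration required for 50% inhibition of growth. The concentration for full growth arrest is given as TGI.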

Columns and labels:
Assay in all cases: inhibition of tumour cell growth, NCI panel, 48 h
786-0 renal = tested on: 786-0 renal
A549 NSCLC = tested on: A549 NSCLC
ACHN renal = tested on: ACHN renal
BT-549 breast = tested on: BT-549 breast
CAKI-1 renal = tested on: CAKI-1 renal
CCRF-CEM leukemia = tested on: CCRF-CEM leukemia
COLO 205 colon = tested on: COLO 205 colon
EKVX NSCLC = tested on: EKVX NSCLC
HCC-2998 colon = tested on: HCC-2998 colon
HCT-116 colon = tested on: HCT-116 colon
HCT-15 colon = tested on: HCT-15 colon
HL-60(TB) leukemia = tested on: HL-60(TB) leukemia
HOP-62 NSCLC = tested on: HOP-62 NSCLC
HOP-92 NSCLC = tested on: HOP-92 NSCLC
HS 578T breast = tested on: HS 578T breast
HT29 colon = tested on: HT29 colon
IGROV1 ovarian = tested on: IGROV1 ovarian
K-562 leukemia = tested on: K-562 leukemia
KM12 colon = tested on: KM12 colon
LOX IMVI melanoma = tested on: LOX IMVI melanoma
M14 melanoma = tested on: M14 melanoma
MALME-3M melanoma = tested on: MALME-3M melanoma
MCF7 breast = tested on: MCF7 breast
MDA-MB-231 breast = tested on: MDA-MB-231 breast
MDA-MB-435 = tested on: MDA-MB-435
MOLT-4 leukemia = tested on: MOLT-4 leukemia
NCI-H226 lung = tested on: NCI-H226 lung
NCI-H460 lung = tested on: NCI-H460 lung
NCI-H522 lung = tested on: NCI-H522 lung
NCI/ADR-RES ovarian = tested on: NCI/ADR-RES ovarian
OVCAR-4 ovarian = tested on: OVCAR-4 ovarian
OVCAR-5 ovarian = tested on: OVCAR-5 ovarian
OVCAR-8 ovarian = tested on: OVCAR-8 ovarian
PC-3 prostate = tested on: PC-3 prostate
RPMI-8226 leukemia = tested on: RPMI-8226 leukemia
RXF 393 renal = tested on: RXF 393 renal
SF-268 CNS = tested on: SF-268 CNS
SF-295 CNS = tested on: SF-295 CNS
SF-539 CNS = tested on: SF-539 CNS
SK-MEL-2 melanoma = tested on: SK-MEL-2 melanoma
SK-MEL-28 melanoma = tested on: SK-MEL-28 melanoma
SK-MEL-5 melanoma = tested on: SK-MEL-5 melanoma
SK-OV-3 ovarian = tested on: SK-OV-3 ovarian
SN12C renal = tested on: SN12C renal
SNB-19 CNS = tested on: SNB-19 CNS
SNB-75 CNS = tested on: SNB-75 CNS
SR leukemia = tested on: SR leukemia
SW-620 colon = tested on: SW-620 colon
T-47D breast = tested on: T-47D breast
TK-10 renal = tested on: TK-10 renal
U251 CNS = tested on: U251 CNS
UACC-257 melanoma = tested on: UACC-257 melanoma
UACC-62 melanoma = tested on: UACC-62 melanoma
UO-31 renal = tested on: UO-31 renal

Compound: COc1ccc(-c2cc(-c3cccc4ccccc34)n3c(n2)nc2ccccc23)cc1OC
- GI50 (786-0 renal): 1.57 µM
- TGI (786-0 renal): > 100 µM
- GI50 (A549 NSCLC): 0.58 µM
- TGI (A549 NSCLC): 15.2 µM
- GI50 (ACHN renal): 0.461 µM
- TGI (ACHN renal): 3.35 µM
- GI50 (BT-549 breast): 2.27 µM
- TGI (BT-549 breast): 6.09 µM
- GI50 (CAKI-1 renal): 0.559 µM
- TGI (CAKI-1 renal): > 100 µM
- GI50 (CCRF-CEM leukemia): 0.556 µM
- TGI (CCRF-CEM leukemia): > 100 µM
- GI50 (COLO 205 colon): 0.626 µM
- TGI (COLO 205 colon): > 100 µM
- GI50 (EKVX NSCLC): 2.79 µM
- TGI (EKVX NSCLC): > 100 µM
- GI50 (HCC-2998 colon): 1.62 µM
- TGI (HCC-2998 colon): 4.72 µM
- GI50 (HCT-116 colon): 1.66 µM
- TGI (HCT-116 colon): 49 µM
- GI50 (HCT-15 colon): 0.926 µM
- TGI (HCT-15 colon): > 100 µM
- GI50 (HL-60(TB) leukemia): 0.419 µM
- TGI (HL-60(TB) leukemia): 3.29 µM
- GI50 (HOP-62 NSCLC): 0.65 µM
- TGI (HOP-62 NSCLC): 4.51 µM
- GI50 (HOP-92 NSCLC): 1.65 µM
- TGI (HOP-92 NSCLC): 7.99 µM
- GI50 (HS 578T breast): 1.42 µM
- TGI (HS 578T breast): > 100 µM
- GI50 (HT29 colon): 1.91 µM
- TGI (HT29 colon): 28.2 µM
- GI50 (IGROV1 ovarian): 1.48 µM
- TGI (IGROV1 ovarian): > 100 µM
- GI50 (K-562 leukemia): 1.32 µM
- TGI (K-562 leukemia): > 100 µM
- GI50 (KM12 colon): 9.43 µM
- TGI (KM12 colon): > 100 µM
- GI50 (LOX IMVI melanoma): 0.975 µM
- TGI (LOX IMVI melanoma): 6.65 µM
- GI50 (M14 melanoma): 2.08 µM
- TGI (M14 melanoma): > 100 µM
- GI50 (MALME-3M melanoma): 0.882 µM
- TGI (MALME-3M melanoma): 16.7 µM
- GI50 (MCF7 breast): 0.509 µM
- TGI (MCF7 breast): > 100 µM
- GI50 (MDA-MB-231 breast): 1.52 µM
- TGI (MDA-MB-231 breast): > 100 µM
- GI50 (MDA-MB-435): 2.72 µM
- TGI (MDA-MB-435): > 100 µM
- GI50 (MOLT-4 leukemia): 0.354 µM
- TGI (MOLT-4 leukemia): > 100 µM
- GI50 (NCI-H226 lung): 1.16 µM
- TGI (NCI-H226 lung): 6.7 µM
- GI50 (NCI-H460 lung): 0.357 µM
- TGI (NCI-H460 lung): 1.75 µM
- GI50 (NCI-H522 lung): 2.75 µM
- TGI (NCI-H522 lung): > 100 µM
- GI50 (NCI/ADR-RES ovarian): 2.07 µM
- TGI (NCI/ADR-RES ovarian): > 100 µM
- GI50 (OVCAR-4 ovarian): 4.77 µM
- TGI (OVCAR-4 ovarian): > 100 µM
- GI50 (OVCAR-5 ovarian): 3.03 µM
- TGI (OVCAR-5 ovarian): > 100 µM
- GI50 (OVCAR-8 ovarian): 1.06 µM
- TGI (OVCAR-8 ovarian): > 100 µM
- GI50 (PC-3 prostate): 2.5 µM
- TGI (PC-3 prostate): > 100 µM
- GI50 (RPMI-8226 leukemia): 1.34 µM
- TGI (RPMI-8226 leukemia): 4.29 µM
- GI50 (RXF 393 renal): 2.75 µM
- TGI (RXF 393 renal): > 100 µM
- GI50 (SF-268 CNS): 1.95 µM
- TGI (SF-268 CNS): > 100 µM
- GI50 (SF-295 CNS): 0.582 µM
- TGI (SF-295 CNS): 5.33 µM
- GI50 (SF-539 CNS): 1.02 µM
- TGI (SF-539 CNS): 7.67 µM
- GI50 (SK-MEL-2 melanoma): 2.57 µM
- TGI (SK-MEL-2 melanoma): 7.47 µM
- GI50 (SK-MEL-28 melanoma): 2.88 µM
- TGI (SK-MEL-28 melanoma): > 100 µM
- GI50 (SK-MEL-5 melanoma): 0.96 µM
- TGI (SK-MEL-5 melanoma): 2.84 µM
- GI50 (SK-OV-3 ovarian): 2.55 µM
- TGI (SK-OV-3 ovarian): 44.9 µM
- GI50 (SN12C renal): 1.33 µM
- TGI (SN12C renal): > 100 µM
- GI50 (SNB-19 CNS): 2.59 µM
- TGI (SNB-19 CNS): > 100 µM
- GI50 (SNB-75 CNS): 0.867 µM
- TGI (SNB-75 CNS): 4.6 µM
- GI50 (SR leukemia): 0.362 µM
- TGI (SR leukemia): > 100 µM
- GI50 (SW-620 colon): 0.78 µM
- TGI (SW-620 colon): > 100 µM
- GI50 (T-47D breast): 1.73 µM
- TGI (T-47D breast): 9.24 µM
- GI50 (TK-10 renal): 2.47 µM
- TGI (TK-10 renal): > 100 µM
- GI50 (U251 CNS): 1.16 µM
- TGI (U251 CNS): > 100 µM
- GI50 (UACC-257 melanoma): 2.14 µM
- TGI (UACC-257 melanoma): 40.3 µM
- GI50 (UACC-62 melanoma): 1.03 µM
- TGI (UACC-62 melanoma): 7.2 µM
- GI50 (UO-31 renal): 0.675 µM
- TGI (UO-31 renal): > 100 µM
